Results published in patent US11440923B2, “Substituted macrocyclic indole derivatives” (Bayer Aktiengesellschaft, priority 2017, dated 2022).

Legend:
SK-BR-3 cells = test: Antiproliferation assay SK-BR-3 (Assay 7); type: cell-based; details: Homo sapiens, SK-BR-3, 72 h, read-out: Antiproli SK-BR-3 IC50 median
Procedure: Assessment of the Anti-Proliferative Effect of Compounds in Different Cell Lines
The impact of compounds on the proliferation of different cell lines was assessed using the CellTiter-Glo® Luminescent Cell Viability reagent from Promega (G7573).
In parallel, cells were plated in a reference (day 0) plate for time zero determination. Cells were incubated in a humidified incubator at 37° C. overnight.
Rim wells were excluded. The cells were incubated for 72 h hours in a humidified incubator at 37° C. The day 0 plate was measured by adding 30 μL/well of CTG solution (CellTiter-Glo® Luminescent Cell Viability reagent, Promega G7573) to time zero wells in the reference plate followed by a 10 minutes incubation and luminescence reading at 0.1 ms. using the PHERAstar FS microplate reader (BMG Labtech).
After 72 h incubation, the treated plates were measured in the same way as the day 0 plate mentioned above. The Bella DRC Master Sheet was used to calculate IC50s, with CI=day 0 values and C0=DMSO control values.

SNU-389 cells = test: Antiproliferation assay SNU-389 (Assay 7); type: cell-based; details: 72 h, read-out: Antiproli SNU-389 IC50
Summary of the method: (§1)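 Growth inhibition is determined from ATP luminescence (CellTiter-Glo) following 72 h incubation with compound. Time-zero cells are measured the same way for baseline, and IC50s are referenced to DMSO controls.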

SK-MEL-2 cells = test: Antiproliferation assay SK-MEL-2 (Assay 7); type: cell-based; details: Homo sapiens, SK-MEL-2, 72 h, read-out: Antiproli SK-MEL-2 IC50 median
Summary of the method: as §1

SNU-16 cells = test: Antiproliferation assay SNU-16 (Assay 7); type: cell-based; details: Homo sapiens, SNU-16, 72 h, read-out: Antiproli SNU-16 IC50 median
Summary of the method: as §1

A-431 cells = test: Antiproliferation assay A-431 (Assay 7); type: cell-based; details: Homo sapiens, A-431, 72 h, read-out: Antiproli A-431 IC50 median
Summary of the method: as §1

PA-1 cells = test: Antiproliferation assay PA-1 (Assay 7); type: cell-based; details: Homo sapiens, PA-1, 72 h, read-out: Antiproli PA-1 IC50 median
Summary of the method: as §1

DMS-114 cells = test: Antiproliferation assay DMS-114 (Assay 7); type: cell-based; details: Homo sapiens, DMS-114, 72 h, read-out: Antiproli DM-S114 IC50 median
Summary of the method: as §1

MCL-1 = MCL-1 (Homo sapiens (Human), UniProt Q07820, K194A/K197A/R201A); test: Protein-compound interaction assay (SPR assay, Assay 9); type: binding
Chain of MCL-1 (Q07820 whole entry K194A/K197A/R201A, looked up): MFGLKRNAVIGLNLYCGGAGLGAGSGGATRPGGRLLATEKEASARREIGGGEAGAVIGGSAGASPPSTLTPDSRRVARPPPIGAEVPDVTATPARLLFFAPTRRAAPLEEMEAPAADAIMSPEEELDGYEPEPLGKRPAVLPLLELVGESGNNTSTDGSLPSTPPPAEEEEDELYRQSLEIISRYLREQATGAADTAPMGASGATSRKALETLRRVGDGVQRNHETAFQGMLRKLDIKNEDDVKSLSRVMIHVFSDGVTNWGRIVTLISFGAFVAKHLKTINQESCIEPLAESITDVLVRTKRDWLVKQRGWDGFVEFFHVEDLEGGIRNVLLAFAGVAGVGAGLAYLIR
Description: Assay 9 Protein-Compound Interaction Assay (SPR Assay)
The ability of the compounds described in this invention to bind to MCL-1 may be determined using surface plasmon resonance (SPR). This allows for the quantification of binding in terms of the equilibrium dissociation constant (KD [M]), as well as association and dissociation rate constants (kon [1/Ms] and koff [1/s], respectively). The measurements may be performed using Biacore® T200 or Biacore® S200 instruments (GE Healthcare).
Briefly, carboxymethylated dextran biosensor chips (Series S Sensor Chip CMS, GE Healthcare) were activated with 1-ethyl-3-(3-dimethylaminopropyl)-carbodiimide hydrochloride (EDC) and N-hydroxysuccinimide (NHS) according to the supplier's instructions. MBP-MCL-1 was diluted in 1×PBS-P+ (GE Healthcare) and injected on the activated chip surface. Subsequently, a solution of 1 M ethanolamine-HCl (GE Healthcare) was injected to block unreacted groups, resulting in approximately 400-2500 response units (RU) of immobilized protein. A reference surface was generated by treatment with NHS-EDC and ethanolamine-HCl. […] Compounds were injected for 60 s followed by a dissociation time of up to 1000 s.
The double-referenced sensorgrams were fit to a simple reversible Langmuir 1:1 reaction mechanism as implemented in the Biacore® T200 and S200 evaluation software (T200 evaluation software version 2.0 and S200 evaluation software version 1.0, GE Healthcare).

SMILES: Cc1c2c(nn1C)C(CCN1CCOCC1)OCCCCn1c(C(=O)O)c(CCCOc3cccc4cc(F)ccc34)c3ccc(F)c-2c31 (single isomer, unassigned; enantiomer 1) [Example 20, 4-fluoro-7-{3-[(6-fluoronaphthalen-1-yl)oxy]propyl}-2,3-dimethyl-15-[2-(morpholin-4-yl)ethyl]-2,10,11,12,13,15-hexahydropyrazolo[4′,3′:9,10][1,6]oxazacycloundecino[8,7,6-hi]indole-8-carboxylic Acid—N-ethylethanamine (Enantiomer 1)]
- IC50 (SK-BR-3 cells): 173 nM
- IC50 (SNU-389 cells): 437 nM
- IC50 (SK-MEL-2 cells): 607 nM
- IC50 (SNU-16 cells): 397 nM
- IC50 (A-431 cells): 462 nM
- IC50 (PA-1 cells): 304 nM
- IC50 (DMS-114 cells): 222 nM
- Kd (MCL-1; KD (geometric mean), SPR, 25° C.): 0.56 nM
- koff (MCL-1; read-out: koff (geometric mean), SPR, 25° C.): 0.018 s⁻¹
- kon (MCL-1; read-out: kon (geometric mean), SPR, 25° C.): 3.2e+07 M⁻¹ s⁻¹
